Assay results: patent publication US20240299376A1, “METHOD OF TREATING A CONDITION USING A […] EFFECTIVE DOSE OF 1-(1-OXO-1,2-DIHYDROISOQUINOLIN-5-YL)-5-(TRIFLUOROMETHYL)-N-(2-(TRIFLUOROMETHYL)PYRIDIN-4-YL)-1H-PYRAZOLE-4-CARBOXAMIDE” (Janssen Pharmaceutica NV, priority 2021, published 2024)
Where two headings read alike, the source gives them in different places. Marks after values point to notes of the source that are not given here.

Assays:
[1] = test system: HBL1 (CD79b/Myd88/A20 mut); assay: Anti-proliferative activity, DLBCL cell line panel; assay type: cell-based; details: HBL1, 192 h; antiproliferation after 8 days of treatment
Method: (§1) Four ABC-DLBCL cell lines with activating mutations in the canonical NFκB pathway were evaluated (OCI-LY3 (CARD11, MYD88 & A20 mutations), TMD8, HBL1, and OCI-LY10 (CD79B & MYD88 mutations)), which are generally sensitive to NF-κB pathway inhibition. None of the GCB-DLBCL cell lines harbor mutations in the NF-κB pathway. The GCB-DLBCL cell lines served as a negative control to exclude compounds with general cytotoxic effects.
(§2) At concentrations ≥20 μM general cytotoxicity was observed.

SU-DHL4 (no NF-κB mut) = assay: Anti-proliferative activity, DLBCL cell line panel; assay type: cell-based; details: Homo sapiens, SU-DHL-4, 192 h; antiproliferation after 8 days of treatment
Method: as §1, §2

[2] = test system: TMD8 (CD79b/Myd88/A20 mut); assay: Anti-proliferative activity, DLBCL cell line panel; assay type: cell-based; details: Homo sapiens, TMD8, 192 h; antiproliferation after 8 days of treatment
Method: as §1, §2

OCT-Ly7 (no NF-κB mut) = assay: Anti-proliferative activity, DLBCL cell line panel; assay type: cell-based; details: 192 h; antiproliferation after 8 days of treatment
Method: as §1, §2

OCI-Ly1 (no NF-κB mut) = assay: Anti-proliferative activity, DLBCL cell line panel; assay type: cell-based; details: Homo sapiens, OCI-Ly1, 192 h; antiproliferation after 8 days of treatment
Method: as §1, §2

[3] = test system: OCI-LY3 (Myd88/CARD11 A20 mut); assay: Anti-proliferative activity, DLBCL cell line panel; assay type: cell-based; details: Homo sapiens
Method: as §1, §2

[4] = Serum and tumor levels after a single oral dose in male OCI-LY3 tumor-bearing NSG mice; assay type: in vivo; details: 100 mg/kg single oral dose, PEG400 solution, mean (SD)
Method: For PD, when tumors reached 550-750 mm^3 animals were assigned randomly into the treatment groups and treated as presented in Table 5. Dose volumes were adjusted to individual body weights at 10 mL/kg. For both PD studies, serum was collected at 2 and 12 hours post treatment from the retro-orbital sinus. At 24 hours post treatment, animals were bled via decapitation and tumors were excised, weighed, and divided for bioanalysis and ex vivo PD analysis. Blood was centrifuged at 10,000 rpm and serum divided for bioanalysis and PD analysis.
Serum samples were collected at 2, 12, and 24 hours post dose and tumor samples were collected 24 hours post dose.

Single IV dose plasma PK = assay type: in vivo, rat; details: for C0 / Vd / AUC(0-inf) / clearance / half-life: male, plasma, S-D; for C0 / Vd: Rat; for Vd / AUC(0-inf) / clearance / half-life: iv, 1 mg/kg; for Vd: read-out: Vdss
Method: Single intravenous (IV) dose PK was conducted in mice (two strains), rats, monkeys, and dogs at a dose of 1 mg/kg in 70% PEG400 (PEG400/water 70:30) by bolus injection. The time course for plasma sample was optimized to fully characterize the disposition profile in each species. PK analysis was by non-compartmental method.

OCI-LY3 cells = assay: Whole-gene transcriptomics; assay type: cell-based, human; details: OCI-LY3 (Myd88 and CARD11 mutations)
B-cell lymphoma lines = assay: Anti-proliferative activity, panel of 10 B-cell lymphoma lines (general cytotoxicity); assay type: cell-based
Method: as §1, §2

[5] = Serum and tumor levels after multiple oral doses in male OCI-LY3 tumor-bearing NSG mice; assay type: in vivo; details: mean (SD); for concentration at 7 h / concentration at 12 h / concentration at 4 h / concentration at 24 h / Kp at 12 h / Kp at 24 h: male, NSG, mouse; for concentration at 7 h: 7 h post dose; for Kp at 12 h: Day 5, 12 h post dose, read-out: Tumor: serum ratio; for Kp at 24 h: read-out: Tumor:serum ratio
Method: Serum samples were collected at 7 and 12 hours post dose and tumor samples were collected 12 hours post last dose from the twice-daily-treated animals. From once-daily-treated animals, serum samples were collected at 4, 12, and 24 hours post dose and tumor samples were collected at 24 hours post last dose.

[6] = Sprague-Dawley (S-D), rat, 3M, 1 mg/kg IV in 70% PEG400 (-AAA), mean
[7] = Sprague-Dawley (S-D), rat, 6M, 1 mg/kg IV, dosed as the -ZAF salt

In the case of O=C(Nc1ccnc(C(F)(F)F)c1)c1cnn(-c2cccc3c(=O)[nH]ccc23)c1C(F)(F)F [Compound A, 1-(1-oxo-1,2-dihydroisoquinolin-5-yl)-5-(trifluoromethyl)-N-[2-(trifluoromethyl)pyridin-4-yl]-1H-pyrazole-4-carboxamide], the IC50 [1] is reported as 547 nM, the IC50 (SU-DHL4 (no NF-κB mut)) is reported as 6000 nM and the IC50 [2] is reported as 635 nM. The IC50 (OCT-Ly7 (no NF-κB mut)) was over 10000 nM, the IC50 (OCI-Ly1 (no NF-κB mut)) was over 10000 nM and the IC50 ([3]; OCI-Ly3, 192 h, antiproliferation after 8 days of treatment) was 496 nM. The IC50 ([3]; Proliferation, OCI-LY3) was 496 ± 262 nM, the Serum concentration ([4]; 12 h post dose) was 4,118 (1,322 ng/ml and the Tumor concentration ([4]; 24 h post dose, N = 4) was 1,180 (223)^b ng/g. For the same compound, the concentration at 2 h ([4]; male, NSG, mouse, serum, 2 h post dose) was 3730 ng/mL, the concentration at 24 h ([4]; male, NSG, mouse, serum, 24 h post dose) was 1060 ng/mL and the C0 (Single IV dose plasma PK; Sprague-Dawley (S-D), 6M, 1 mg/kg IV, dosed as the -ZAF salt, mean) was 1450 ng/mL. The Vd (Single IV dose plasma PK; [6]) was 0.86 L/kg, the Vd (Single IV dose plasma PK; [7]) was 0.622 L/kg and the AUC(0-inf) (Single IV dose plasma PK; [6]) was 7950 ng·h/mL. For the same compound, the clearance (Single IV dose plasma PK; [6]) was 2.15 mL/min/kg, the half-life (Single IV dose plasma PK; [6]) was 10 h and the AUC(0-inf) (Single IV dose plasma PK; [7]) was 9780 ng·h/mL. For the same compound, the clearance (Single IV dose plasma PK; [7]) was 1.7 mL/min/kg, the half-life (Single IV dose plasma PK; [7]) was 5.33 h and the C0 (Single IV dose plasma PK; Sprague-Dawley, 3M, 1 mg/kg IV in 70% PEG400 (-AAA), mean) was 2200 ng/mL. For the same compound, the “CL as fraction of liver blood flow (LBF)” value (Single IV dose plasma PK; rat, LBF 55.2 mL/min/kg) was 1.5%, the gene expression changes (OCI-LY3 cells) was “clear dose-dependent gene expression changes” and the “concentrations at which general cytotoxicity was observed” value (B-cell lymphoma lines) was at least 20 µM. For the same compound, the Serum concentration ([5]; 10 mg/kg twice daily PO, Day 5 eight doses given, 12 h post dose (trough)) was 2,202 (313) ng/ml, the concentration at 7 h ([5]; serum, oral, 10 mg/kg, 10 mg/kg twice daily PO, Day 1 following first dose) was 3260 ng/mL and the concentration at 12 h ([5]; serum, oral, 10 mg/kg, 10 mg/kg twice daily PO, Day 1 following first dose, 12 h post dose, read-out: Serum concentration) was 2440 ng/mL. It also gave a concentration at 7 h ([5]; serum, oral, 10 mg/kg, 10 mg/kg twice daily PO, Day 4 seven doses given) of 3760 ng/mL, a concentration at 12 h ([5]; serum, oral, 10 mg/kg, 10 mg/kg twice daily PO, Day 5 eight doses given, 12 h post dose (trough), read-out: Serum concentration) of 2200 ng/mL and a concentration at 7 h ([5]; serum, oral, 30 mg/kg, 30 mg/kg twice daily PO, Day 1 following first dose) of 9970 ng/mL. The concentration at 12 h ([5]; serum, oral, 30 mg/kg, 30 mg/kg twice daily PO, Day 1 following first dose, 12 h post dose, read-out: Serum concentration) was 9000 ng/mL, the concentration at 7 h ([5]; serum, oral, 30 mg/kg, 30 mg/kg twice daily PO, Day 4 seven doses given) was 7420 ng/mL and the concentration at 12 h ([5]; serum, oral, 30 mg/kg, 30 mg/kg twice daily PO, Day 5 eight doses given, 12 h post dose, read-out: Serum concentration) was 3890 ng/mL. The concentration at 7 h ([5]; serum, oral, 100 mg/kg, 100 mg/kg twice daily PO, Day 1 following first dose) was 16200 ng/mL, the concentration at 12 h ([5]; serum, oral, 100 mg/kg, 100 mg/kg twice daily PO, Day 1 following first dose, 12 h post dose, read-out: Serum concentration) was 13300 ng/mL and the concentration at 12 h ([5]; serum, oral, 100 mg/kg, 100 mg/kg twice daily PO, Day 5 eight doses given, 12 h post dose, read-out: Serum concentration) was 6910 ng/mL. The concentration at 4 h ([5]; serum, oral, once daily PO, dose not printed in Table 8 (first group; b301: 60 and 100 mg/kg), Day 1, 4 h post dose) was 15000 ng/mL, the concentration at 4 h ([5]; serum, oral, once daily PO, dose not printed in Table 8 (second group; b301: 60 and 100 mg/kg), Day 1, 4 h post dose) was 18100 ng/mL and the concentration at 24 h ([5]; serum, po, once daily PO, dose not given (first group), Day 1, 24 h post dose, read-out: Serum concentration) was 2060 ng/mL. It also gave a concentration at 4 h ([5]; serum, po, once daily PO, dose not given (first group), Day 4, 4 h post dose) of 9850 ng/mL, a concentration at 12 h ([5]; serum, po, once daily PO, dose not given (first group), Day 4, 12 h post dose, read-out: Serum concentration) of 8680 ng/mL and a concentration at 24 h ([5]; serum, po, once daily PO, dose not given (first group), Day 4, 24 h post dose, read-out: Serum concentration) of 1380 ng/mL. It also gave a concentration at 24 h ([5]; serum, po, once daily PO, dose not given (second group), Day 1, 24 h post dose, read-out: Serum concentration) of 1970 ng/mL, a concentration at 4 h ([5]; serum, po, once daily PO, dose not given (second group), Day 4, 4 h post dose) of 12600 ng/mL and a concentration at 12 h ([5]; serum, po, once daily PO, dose not given (second group), Day 4, 12 h post dose, read-out: Serum concentration) of 11000 ng/mL. It also gave a concentration at 24 h ([5]; serum, po, once daily PO, dose not given (second group), Day 4, 24 h post dose, read-out: Serum concentration) of 2800 ng/mL, a Kp at 12 h ([5]; tumor and serum, 10 mg/kg twice daily PO) of 1 and a Kp at 12 h ([5]; tumor and serum, 30 mg/kg twice daily PO) of 1.3. The Kp at 12 h ([5]; tumor and serum, 100 mg/kg twice daily PO) was 1.3, the Kp at 24 h ([5]; tumor and serum, once daily PO, dose not given (first group), Day 4, 24 h post dose) was 1.9 and the concentration at 12 h ([5]; tumor, oral, 10 mg/kg, 10 mg/kg twice daily PO, Day 5 eight doses given, 12 h post dose, read-out: Tumor concentration) was 2160 ng/g. It also gave a concentration at 12 h ([5]; tumor, oral, 30 mg/kg, 30 mg/kg twice daily PO, Day 5 eight doses given, 12 h post dose, read-out: Tumor concentration) of 5050 ng/g, a concentration at 12 h ([5]; tumor, oral, 100 mg/kg, 100 mg/kg twice daily PO, Day 5 eight doses given, 12 h post dose, read-out: Tumor concentration) of 8830 ng/g and a concentration at 24 h ([5]; tumor, po, once daily PO, dose not given (first group), Day 4, 24 h post dose, read-out: Tumor concentration) of 2460 ng/g. The concentration at 24 h ([5]; tumor, po, once daily PO, dose not given (second group), Day 4, 24 h post dose, read-out: Tumor concentration) was 4300 ng/g and the Kp at 24 h ([5]; tumor/serum, once daily PO, dose not given (second group), Day 4, 24 h post dose) was 1.6.
